Laboratory results as given in ChEMBL document CHEMBL1133988 (Bioorg Med Chem Lett, 2001).
≈ marks a conversion by molar mass, not a printed value.

How the values were obtained:
Eimeria tenella = assay: In vitro antiprotozoal activity using […] bovine kidney host cells infected with Eimeria tenella; assay type: functional
Histone deacetylase = assay: Inhibitory activity against histone deacetylase (HDAC) enzyme derived from partially purified extracts of human HeLa cells using [3H]11 as radioligand
Plasmodium falciparum = assay: In vitro antiprotozoal activity against Plasmodium falciparum infected erythrocytes; assay type: functional, organism-based
[1] = Tested in vitro by mammalian antiproliferative functional assay using human HeLa cells or foreskin fibroblasts
[2] = Binding affinity towards HDAC enzyme derived from chicken liver (CL) cells; design: species or system Gallus gallus
[3] = Binding affinity towards histone deacetylase (HDAC) enzyme derived from chicken liver (CL) cells using [3H]11; design: species or system Gallus gallus

Row | Structure (SMILES) | MIC (Eimeria tenella) [µg/mL] | IC50 (Histone deacetylase) [nM] | IC50 (Plasmodium falciparum) [µg/mL] | AP50 [1] [ng/mL] | Ki [2] [nM] | Ki [3] [nM]
1 | CCC(=O)CCCCC[C@@H]1NC(=O)[C@H]2CCCCN2C(=O)[C@H]([C@@H](C)CC)NC(=O)[C@H](Cc2cn(CN3CCCC3)c3ccccc23)NC1=O | 0.031 (≈ 0.0458 µM) | 0.2 | 0.035 (≈ 0.0517 µM) |  |  | 
2 | CCCCCCCCCCC(=O)C[C@@H]1NC(=O)[C@H](CCCCCC(=O)CC)NC(=O)[C@H]2CCCCN2C(=O)[C@H]([C@@H](C)CC)NC1=O | > 1 |  | > 1 | >10000 | > 1000 | 
3 | CCC(=O)CCCCC[C@@H]1NC(=O)[C@H]2CCCCN2C(=O)[C@H]([C@@H](C)CC)NC(=O)[C@H](c2cn(CC)c3ccccc3c2=O)NC1=O | > 1 |  | 0.24 (≈ 0.377 µM) | >10000 | 2000 | 
4 | CCC(=O)CCCCC[C@@H]1NC(=O)[C@H]2CCCCN2C(=O)[C@H]([C@@H](C)CC)NC(=O)[C@H](c2cnc3ccccc3c2N2CCCCC2)NC1=O [listing 1 of 2 here] | 0.125 (≈ 0.185 µM) |  |  | 2500 |  | 
5 | CCC(=O)CCCCC[C@@H]1NC(=O)[C@H]2CCCCN2C(=O)[C@H]([C@@H](C)CC)NC(=O)[C@H](Cc2c[nH]c3ccccc23)NC1=O | 0.031 (≈ 0.0522 µM) | 2 | 0.035 (≈ 0.0589 µM) |  |  | 
6 | CCC(=O)CCCCC[C@@H]1NC(=O)[C@H]2CCCCN2C(=O)[C@H]([C@@H](C)CC)NC(=O)[C@H](CC2CN(OC)c3ccc(Br)cc32)NC1=O (stereo not given in full) | 0.1 (≈ 0.142 µM) |  | > 1 |  |  | 4500
7 | CCC(=O)CCCCC[C@@H]1NC(=O)[C@H]2CCCCN2C(=O)[C@H]([C@@H](C)CC)NC(=O)[C@H](Cc2cn(C)c3ccccc23)NC1=O | 0.125 (≈ 0.206 µM) |  | 0.02 (≈ 0.0329 µM) |  |  | 5
8 | CCC(=O)CCCCC[C@@H]1NC(=O)[C@H]2CCCCN2C(=O)[C@H]([C@@H](C)CC)NC(=O)[C@H](CC(=O)Cc2ccccc2)NC1=O | > 1 |  | 0.85 (≈ 1.42 µM) | >10000 | 2000 | 
9 | CCC(=O)CCCCC[C@@H]1NC(=O)[C@H]2CCCCN2C(=O)[C@H]([C@@H](C)CC)NC(=O)[C@@H](c2cnc3ccccc3c2O)NC1=O | > 1 |  | 0.055 (≈ 0.0905 µM) | >10000 | 500 | 
10 | CCC(=O)CCCCC[C@@H]1NC(=O)[C@H]2CCCCN2C(=O)[C@H]([C@@H](C)CC)NC(=O)[C@H](Cc2c(-c3ccc4c(ccn4C)c3)[nH]c3ccccc23)NC1=O | 0.062 (≈ 0.0858 µM) |  | 0.1 (≈ 0.138 µM) |  |  | 5
11 | CCC(=O)CCCCC[C@@H]1NC(=O)[C@H]2CCCCN2C(=O)[C@H]([C@@H](C)CC)NC(=O)[C@@H](C(=O)Cc2ccccc2)NC1=O | 0.5 (≈ 0.858 µM) |  | 0.777 (≈ 1.33 µM) | >10000 | 500 | 
12 | CCC(=O)CCCCC[C@@H]1NC(=O)[C@H]2CCCCN2C(=O)[C@H]([C@@H](C)CC)NC(=O)[C@H](Cc2cn(OC)c3ccccc23)NC1=O [APICIDIN] | 0.094 (≈ 0.151 µM) |  | 0.058 (≈ 0.093 µM) | 89 | 4 | 
13 | CCC(=O)CCCCC[C@@H]1NC(=O)[C@H]2CCCCN2C(=O)[C@H]([C@@H](C)CC)NC(=O)[C@H](C(=O)c2c[nH]c3ccccc23)NC1=O | 0.125 (≈ 0.206 µM) |  | 0.016 (≈ 0.0263 µM) |  |  | 12
14 | CCC(=O)CCCCC[C@@H]1NC(=O)[C@H]2CCCCN2C(=O)[C@H]([C@@H](C)CC)NC(=O)[C@H](c2cnc3ccccc3c2N2CCCCC2)NC1=O [listing 2 of 2 here] |  | 13 | 0.055 (≈ 0.0815 µM) |  | 100 | 
15 | CCC(=O)CCCCC[C@@H]1NC(=O)[C@H]2CCCCN2C(=O)[C@H]([C@@H](C)CC)NC(=O)[C@H](c2cnc3ccccc3c2O)NC1=O | > 1 |  | 0.04 (≈ 0.0658 µM) | >10000 | 1000 | 
16 | CCC(=O)CCCCC[C@@H]1NC(=O)[C@H]2CCCCN2C(=O)[C@H]([C@@H](C)CC)NC(=O)[C@H](Cc2cn(CCN)c3ccccc23)NC1=O | > 1 | 1.3 | 0.1 (≈ 0.157 µM) |  |  | 

Row | Structure (SMILES) | MIC (Eimeria tenella) [µg/mL] | IC50 (Histone deacetylase) [nM] | IC50 (Plasmodium falciparum) [µg/mL] | AP50 [1] [ng/mL] | Ki [2] [nM] | Ki [3] [nM]
17 | CCC(=O)CCCCC[C@@H]1NC(=O)[C@H]2CCCCN2C(=O)[C@H]([C@@H](C)CC)NC(=O)[C@H](c2cnc3ccccc3c2Cl)NC1=O [listing 1 of 2 here] | 0.2 (≈ 0.319 µM) |  |  | 10000 |  | 
18 | CCC(=O)CCCCC[C@@H]1NC(=O)[C@H]2CCCCN2C(=O)[C@H]([C@@H](C)CC)NC(=O)[C@H](Cc2cn(CC(=O)O)c3ccccc23)NC1=O | > 1 |  | > 1 |  |  | 80
19 | CCC(=O)CCCCC[C@@H]1NC(=O)[C@H]2CCCCN2C(=O)[C@H]([C@@H](C)CC)NC(=O)[C@H](CC(=O)C(C)(C)C)NC1=O | > 1 |  | 0.775 (≈ 1.38 µM) | >10000 | 2000 | 
20 | CCC(=O)CCCCC[C@@H]1NC(=O)[C@H]2CCCCN2C(=O)[C@H]([C@@H](C)CC)NC(=O)[C@H](c2cn(OC)c3ccccc3c2=O)NC1=O | 0.25 (≈ 0.392 µM) |  | 0.04 (≈ 0.0627 µM) | 10000 | 1500 | 
21 | CCC(=O)CCCCC[C@@H]1NC(=O)[C@H]2CCCCN2C(=O)[C@H]([C@@H](C)CC)NC(=O)[C@H](Cc2c(-c3ccccc3)[nH]c3ccccc23)NC1=O | > 1 | 4 | 0.7 (≈ 1.04 µM) |  |  | 
22 | CCCn1cc(C(=O)[C@H]2NC(=O)[C@H](CCCCCC(=O)CC)NC(=O)[C@H]3CCCCN3C(=O)[C@H]([C@@H](C)CC)NC2=O)c2ccccc21 | 0.125 (≈ 0.192 µM) | 15 | 0.15 (≈ 0.231 µM) |  |  | 
23 | CCC(=O)CCCCC[C@@H]1NC(=O)[C@H]2CCCCN2C(=O)[C@H]([C@@H](C)CC)NC(=O)[C@H](c2cnc3ccccc3c2Cl)NC1=O [listing 2 of 2 here] |  | 67 | 0.225 (≈ 0.359 µM) |  | 300 | 
24 | CCC(=O)CCCCC[C@@H]1NC(=O)[C@H]2CCCCN2C(=O)[C@H]([C@@H](C)CC)NC(=O)[C@H](Cc2cn(OC)c3ccc(Br)cc23)NC1=O | 0.5 (≈ 0.712 µM) |  | 0.55 (≈ 0.783 µM) |  |  | 60
25 | CCC(=O)CCCCC[C@@H]1NC(=O)[C@H]2CCCCN2C(=O)[C@H]([C@@H](C)CC)NC(=O)[C@H](Cc2cn(CC)c3ccccc23)NC1=O | 0.05 (≈ 0.0804 µM) |  | 0.18 (≈ 0.289 µM) |  |  | 10
26 | CCC(=O)CCCCC[C@@H]1NC(=O)[C@H]2CCCCN2C(=O)[C@H]([C@@H](C)CC)NC(=O)[C@@H](C(=O)c2ccc3c(ccn3C)c2)NC1=O | 0.05 (≈ 0.0804 µM) |  | 0.015 (≈ 0.0241 µM) |  |  | 20
27 | CCC(=O)CCCCC[C@@H]1NC(=O)[C@H]2CCCCN2C(=O)[C@H]([C@@H](C)CC)NC(=O)[C@H](Cc2c(-c3cc(OC)cc(OC)c3)[nH]c3ccccc23)NC1=O | 0.125 (≈ 0.171 µM) | 0.2 | 0.25 (≈ 0.343 µM) |  |  | 
28 | CCC(=O)CCCCC[C@@H]1NC(=O)[C@H]2CCCCN2C(=O)[C@H]([C@@H](C)CC)NC(=O)[C@H](CC(=O)c2ccccc2[N+](=O)[O-])NC1=O | 0.125 (≈ 0.199 µM) | 91 | 0.5 (≈ 0.797 µM) |  |  | 
29 | CCC(=O)CCCCC[C@@H]1NC(=O)[C@H]2CCCCN2C(=O)[C@H]([C@@H](C)CC)NC(=O)[C@@H](C(=O)c2c[nH]c3ccccc23)NC1=O | 0.125 (≈ 0.206 µM) |  | 0.07 (≈ 0.115 µM) |  |  | 30
30 | CCC(=O)CCCCC[C@@H]1NC(=O)[C@H]2CCCCN2C(=O)[C@H]([C@@H](C)CC)NC(=O)[C@H](Cc2c(Br)[nH]c3ccccc23)NC1=O | 0.015 (≈ 0.0223 µM) |  | 0.025 (≈ 0.0372 µM) |  |  | 3
31 | CCC(=O)CCCCC[C@@H]1NC(=O)[C@H]2CCCCN2C(=O)[C@H]([C@@H](C)CC)NC(=O)[C@H](CCOc2ccccc2)NC1=O | 0.25 (≈ 0.428 µM) | 34 |  | 1450 |  | 
